In assay [1] the test system is MRP5. Conditions: reducing expression of endogenous MRP5; drug and, for 5-fluorouracil, its metabolites; ref [24],[25]; cited from earlier work. From the text:
Patients with high hMRP5 levels tend to have a worse survival rate than those with low expression[20]–[22]. Further, overexpression of hMRP5 is a strong predictor of poor outcomes in cancer patient cohorts[19],[22],[23].

Assay [2] concerns hMRP5. Further details: method as in 2 sources, ref [15]–[18] = [15]; PMID 28277541; doi:10.1038/cddis.2017.53; 15. Hou Y The FOXM1-ABCC5 axis contributes to paclitaxel resistance in nasopharyngeal carcinoma cells Cell Death Dis. 2017 8 e2659 10.1038/cddis.2017.53 28277541 PMC5386553 || [16]; PMID 26975227; doi:10.1038/tpj.2016.17; 16. Lal S Pharmacogenetics of ABCB5, ABCC5 and RLIP76 and doxorubicin pharmacokinetics in Asian breast cancer patients Pharmacogenomics J. 2017 17 337 343 10.1038/tpj.2016.17 26975227 || [17]; PMID 15897250; doi:10.1158/1535-7163.MCT-04-0291; 17. Pratt S The multidrug resistance protein 5 (ABCC5) confers resistance to 5-fluorouracil and transports its monophosphorylated metabolites Mol. Cancer Ther. 2005 4 855 863 10.1158/1535-7163.MCT-04- || [18]; PMID 10840050; doi:10.1073/pnas.120159197; 18. Wijnholds J Multidrug-resistance protein 5 is a multispecific organic anion transporter able to transport nucleotide analogs Proc. Nat. Acad. Sci. USA 2000 97 7476 7481 10.1073/pnas.120159197 1084 ||| ref [18] = [18]; PMID 10840050; doi:10.1073/pnas.120159197; 18. Wijnholds J Multidrug-resistance protein 5 is a multispecific organic anion transporter able to transport nucleotide analogs Proc. Nat. Acad. Sci. USA 2000 97 7476 7481 10.1073/pnas.120159197 1084. The settings on record: cited from earlier work; for efflux by hMRP5 / contribution to drug resistance, in words: anticancer drugs, ref [15]–[18].

Assay [3] concerns GFP-hMRP5. In words: Doxorubicin transport assay in Xenopus laevis oocytes. Format: cell-based, human. The settings on record: no peptide, 200 μM doxorubicin, 180 min, Kulori buffer pH 7.4, final 50 μl extract, LC-MS, *P = 0.0190 blank vs GFP-hMRP5. As to the method:
The transport assay was essentially done and modified as described. In brief, the cRNAs of C-terminal GFP-tagged hMRP5 and C-terminal mcherry-tagged M5PI were prepared from the linearized pcs2CAG vector DNA templates using the mMESSAGE mMACHINE T7 transcription system (Thermo Scientific, AM1344). Xenopus oocytes were injected with approximately 30 nl of cRNA (GFP-tagged hMRP5 and mcherry-tagged M5PI have the equal quantity 30 ng) or water after maintained in ND96 solution (96 mM NaCl, 2 mM KCl, 1 mM MgCl2, 1.8 mM CaCl2, 5 mM HEPES, pH 7.4) overnight. After 3 days of culture, the GFP and mcherry fluorescence of oocytes was detected using Nikon Confocal A1R, and oocytes showing similar fluorescence intensity were selected for assay. Then, oocytes were pre-incubated in Kulori buffer (90 mM NaCl, 1 mM KCl, 1 mM MgCl2, 5 mM HEPES, pH 7.4) for 5 min before being transferred to 1 ml Kulori buffer containing 200 μM doxorubicin for 180 min. The assay was stopped by removing the buffer and then washed with Kulori buffer at least 3 times and transferred into 1.5 ml tubes (3 oocytes per tube). Excess washing buffer was removed from the tube, and then 50 μl 50% methanol was added to the tube for oocyte homogenization by pipetting. The homogenized samples were centrifuged at 10,000 × g for 10 min at 4 °C, and the supernatants were transferred into new tubes and incubated at −20 °C until further analysis. The samples were acquired with a Q Exactive mass spectrometer coupled with UltiMate 3000 liquid chromatography system (Thermo scientific, CA, USA) after centrifugation at 20,000 × g for 15 min at 4 °C. A Hypersil GOLDTM C18 column (2.1 ×100 mm, 1.9 μm, Thermo Scientific) was used at a flow rate of 0.3 ml min^−1 for separation. Mobile phase A was 0.1% formic acid, while mobile phase B was acetonitrile modified with 0.1% formic acid. The mass spectrometer was operated in positive mode with a spray voltage of 3.5 kV. Full scan mass spectrometry data were recorded from the m/z range of 80–800. A standard dilution curve for quantification of doxorubicin was done. Statistical analysis of the transport assay results was performed using GraphPad Prism. Source data is provided as Source Data 6. The mass spectrometry data is provided as Supplementary Data 3.

The target of assay [4] is T1, hMRP5-Δ1-94 (Homo sapiens, UniProt O15440).
T1 construct: The codon-optimized full-length human ABCC5 gene encoding the MRP5 protein (UniProt ID: O15440); 8xHis (C); 2xstrep (C); made in house; host or cells: HEK293F
In words: MST binding assay, hMRP5-Δ1-94. The settings on record: for binding affinity to hMRP5, in words: MST, digitonin-purified hMRP5-Δ1-94, 15 min at room temperature. As to the method: We monitored the binding of different peptides to digitonin-purified hMRP5-Δ1-94-8xHis by MST assay (Monolith NT). HEPES buffer was used to replace Tris buffer during protein purification in the MST assay. The purified protein was mixed with RED-tris-NTA 2nd Generation dye (NanoTemper, MO-L018). Next, serially diluted peptides were mixed with the labeled protein. The mixtures were incubated for 15 min at room temperature, then the capillaries were loaded and the samples were assessed at 3% LED/excitation power and medium MST power. All peptides used in this study were synthesized in GL Biochem (Shanghai). The peptide sequence is provided as Source Data 5. The MST data were analyzed with MO.Affinity Analysis software.

Assay [5] relates to MRP5. Also noted: method as in PMID 16337112, PMID 15006554, PMID 10893247. Conditions: ref [25],[29],[30]; cited from earlier work.
The target in assay [6] is T2, hMRP4 (Homo sapiens, UniProt O15439).
T2 sequence (O15439 1-1325): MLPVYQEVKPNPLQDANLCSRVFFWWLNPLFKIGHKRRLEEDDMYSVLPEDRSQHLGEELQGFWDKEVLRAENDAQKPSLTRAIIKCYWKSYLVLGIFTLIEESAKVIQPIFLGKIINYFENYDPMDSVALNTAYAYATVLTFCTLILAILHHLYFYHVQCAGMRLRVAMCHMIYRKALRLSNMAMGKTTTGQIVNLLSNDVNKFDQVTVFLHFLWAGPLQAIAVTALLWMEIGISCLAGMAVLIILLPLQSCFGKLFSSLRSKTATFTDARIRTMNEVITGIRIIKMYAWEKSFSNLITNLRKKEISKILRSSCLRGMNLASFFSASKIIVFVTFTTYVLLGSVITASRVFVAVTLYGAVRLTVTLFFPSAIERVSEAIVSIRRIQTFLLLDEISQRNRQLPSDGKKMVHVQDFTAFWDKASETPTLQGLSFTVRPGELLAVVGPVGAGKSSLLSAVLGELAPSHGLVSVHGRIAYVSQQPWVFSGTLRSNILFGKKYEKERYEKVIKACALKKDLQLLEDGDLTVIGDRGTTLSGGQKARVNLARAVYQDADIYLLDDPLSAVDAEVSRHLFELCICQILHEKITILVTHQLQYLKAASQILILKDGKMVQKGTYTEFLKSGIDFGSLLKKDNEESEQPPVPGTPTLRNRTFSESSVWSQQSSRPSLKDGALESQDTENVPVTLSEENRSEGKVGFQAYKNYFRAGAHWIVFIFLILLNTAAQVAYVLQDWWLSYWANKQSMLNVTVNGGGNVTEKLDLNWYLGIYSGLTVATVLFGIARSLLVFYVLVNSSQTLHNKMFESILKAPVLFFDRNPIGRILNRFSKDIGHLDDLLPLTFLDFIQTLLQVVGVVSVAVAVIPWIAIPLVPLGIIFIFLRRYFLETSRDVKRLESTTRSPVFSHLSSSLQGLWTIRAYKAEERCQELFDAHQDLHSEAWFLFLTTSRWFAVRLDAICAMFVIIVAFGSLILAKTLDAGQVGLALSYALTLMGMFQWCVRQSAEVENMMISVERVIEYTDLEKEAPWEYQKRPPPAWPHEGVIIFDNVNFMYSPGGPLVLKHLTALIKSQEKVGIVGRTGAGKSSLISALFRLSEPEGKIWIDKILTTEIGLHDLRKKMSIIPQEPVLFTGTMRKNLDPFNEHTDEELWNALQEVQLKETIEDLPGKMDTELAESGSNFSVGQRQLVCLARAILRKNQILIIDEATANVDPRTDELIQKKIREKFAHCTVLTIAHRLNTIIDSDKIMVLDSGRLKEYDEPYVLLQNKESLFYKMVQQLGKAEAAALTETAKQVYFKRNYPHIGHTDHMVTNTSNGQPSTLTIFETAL
Briefly: MST binding assay, hMRP4.

Like-named read-outs stand apart in the source and are kept apart here.

T1 sequence (O15440 95-1437 limits assumed, stated change not applied): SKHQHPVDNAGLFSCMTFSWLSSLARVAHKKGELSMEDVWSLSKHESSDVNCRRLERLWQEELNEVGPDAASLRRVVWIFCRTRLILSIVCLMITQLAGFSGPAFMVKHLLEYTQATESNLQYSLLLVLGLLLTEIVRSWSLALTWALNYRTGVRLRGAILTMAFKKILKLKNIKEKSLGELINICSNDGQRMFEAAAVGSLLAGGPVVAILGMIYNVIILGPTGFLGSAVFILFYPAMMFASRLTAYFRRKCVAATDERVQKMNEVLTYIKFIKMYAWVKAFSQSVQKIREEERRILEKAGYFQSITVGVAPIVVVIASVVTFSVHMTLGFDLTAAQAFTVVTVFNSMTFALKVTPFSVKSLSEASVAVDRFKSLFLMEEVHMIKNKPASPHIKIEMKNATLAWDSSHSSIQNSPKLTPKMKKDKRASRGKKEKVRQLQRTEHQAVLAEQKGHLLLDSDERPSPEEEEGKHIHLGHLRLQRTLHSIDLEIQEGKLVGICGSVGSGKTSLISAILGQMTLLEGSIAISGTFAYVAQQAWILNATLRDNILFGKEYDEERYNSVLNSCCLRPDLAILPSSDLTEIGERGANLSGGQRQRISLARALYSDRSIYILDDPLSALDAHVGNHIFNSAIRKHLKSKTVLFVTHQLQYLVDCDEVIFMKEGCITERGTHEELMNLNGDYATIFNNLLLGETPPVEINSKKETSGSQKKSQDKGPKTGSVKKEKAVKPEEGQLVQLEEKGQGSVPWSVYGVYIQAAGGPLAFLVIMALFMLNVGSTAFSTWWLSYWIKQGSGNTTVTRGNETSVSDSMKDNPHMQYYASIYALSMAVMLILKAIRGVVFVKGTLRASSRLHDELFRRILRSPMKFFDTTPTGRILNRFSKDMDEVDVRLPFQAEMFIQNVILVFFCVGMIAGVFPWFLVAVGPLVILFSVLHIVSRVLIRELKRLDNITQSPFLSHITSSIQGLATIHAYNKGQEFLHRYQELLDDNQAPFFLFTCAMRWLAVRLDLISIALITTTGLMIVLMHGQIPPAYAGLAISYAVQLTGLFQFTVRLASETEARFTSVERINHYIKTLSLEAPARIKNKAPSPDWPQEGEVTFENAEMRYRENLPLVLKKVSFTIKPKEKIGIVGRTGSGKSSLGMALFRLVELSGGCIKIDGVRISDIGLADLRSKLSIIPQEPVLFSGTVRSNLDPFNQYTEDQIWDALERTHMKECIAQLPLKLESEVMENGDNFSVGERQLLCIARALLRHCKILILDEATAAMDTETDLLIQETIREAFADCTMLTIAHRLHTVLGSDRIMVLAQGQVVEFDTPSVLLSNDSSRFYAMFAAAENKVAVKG

On to `O=c1[nH]cc(F)c(=O)[nH]1` [5-fluorouracil], for which the “intracellular drug concentration on reducing endogenous MRP5, in words” value in assay [1] was “notably increase the intracellular concentrations”.

For `Nc1ncnc2c1ncn2CCOCP(=O)(O)O` [9-(2-phosphonomethoxyethyl) adenine], in assay [2] (antiviral monophosphate nucleotide analog, ref [18]), the “transport by hMRP5, in words” value is “leading to antiviral multidrug resistance”.

As for `COc1cccc2c1C(=O)c1c(O)c3c(c(O)c1C2=O)C[C@@](O)(C(=O)CO)C[C@@H]3O[C@H]1C[C@H](N)[C@H](O)[C@H](C)O1` [Doxorubicin, doxorubicin], the “Doxorubicin concentration in oocyte extract, GFP-hMRP5” value in assay [3] (replicate 1) came to 323.646 nM; in assay [3] (replicate 2), 292.08 nM; in assay [3] (replicate 3) it was 493.92 nM; in assay [3] (replicate 4) it was 266.323 nM. In addition, the “efflux by hMRP5 / contribution to drug resistance, in words” value (“efflux by hMRP5 / contribution” below) in assay [2] is recorded as “directly contribute to cancer drug resistance through the efflux”. The same molecule returned a Kd in assay [4] of 53.5 ± 22.9 µM.

`CN(C)C(=O)CCSC(SCCC(=O)O)c1cccc(/C=C/c2ccc3ccc(Cl)cc3n2)c1` (stereo not shown) [MK-571]: the “inhibition of MRP5 transport activity, in words” value (“inhibition” below) in assay [5] is given as “reported to inhibit the transport activity of MRP5”.

The molecule `CCCCC[C@H](O)/C=C/[C@H]1[C@H](O)CC(=O)[C@@H]1CCCCCCC(=O)O` [PGE1, prostaglandin E1] registered a Kd in assay [6] of 3.73 ± 0.66 µM. Moreover, the “binding affinity to hMRP4, in words” value in assay [6] (MST, three independent measurements) was “hMRP4 could capture prostaglandin E1 (PGE1)”.

For `COc1cc2c(cc1OC)-c1c/c(=N\c3c(C)cc(C)cc3C)n(C)c(=O)n1CC2` [Trequinsin, trequinsin], the “inhibition” value in assay [5] is given as “reported to inhibit the transport activity of MRP5”. Also, the Kd in assay [4] (digitonin-purified hMRP5-Δ1-94-8xHis, HEPES buffer, RED-tris-NTA 2nd Generation dye, 15 min at room temperature, 3% LED/excitation power, medium MST power, mean ± SEM of three independent measurements, read-out: binding affinity (MST), KD value) stood at 42.4 ± 17.5 µM.

With `Nc1nc2c(ncn2[C@@H]2O[C@@H]3COP(=O)(O)O[C@H]3[C@H]2O)c(=O)[nH]1` [cGMP, cyclic GMP], in assay [4], the “binding affinity to hMRP5, in words” value was “relatively low binding affinity”.

With `N.N.[Cl][Pt][Cl]` [cisplatin], in assay [2], the “efflux by hMRP5 / contribution” value is recorded as “directly contribute to cancer drug resistance through the efflux”.

Take `CN(Cc1cnc2nc(N)nc(N)c2n1)c1ccc(C(=O)N[C@@H](CCC(=O)O)C(=O)O)cc1` [methotrexate]: the “efflux by hMRP5 / contribution” value in assay [2] is recorded as “directly contribute to cancer drug resistance through the efflux”.

With `Nc1nc2[nH]cc(CCc3ccc(C(=O)N[C@@H](CCC(=O)O)C(=O)O)cc3)c2c(=O)[nH]1` [pemetrexed], the “intracellular drug concentration on reducing endogenous MRP5, in words” value in assay [1] is reported as “notably increase the intracellular concentrations”.

Take `CCCN(CCC)S(=O)(=O)c1ccc(C(=O)O)cc1` [probenecid]: the “inhibition” value in assay [5] is “reported to inhibit the transport activity of MRP5”.

For the molecule `CC(=O)[C@H]1CC[C@H]2[C@@H]3CCC4=CC(=O)CC[C@]4(C)[C@H]3CC[C@]12C` [progesterone], the “binding affinity to hMRP5, in words” value in assay [4] is “relatively low binding affinity”.

On to `CCCc1nn(C)c2c(=O)[nH]c(-c3cc(S(=O)(=O)N4CCN(C)CC4)ccc3OCC)nc12` [sildenafil], for which the “inhibition” value in assay [5] is “reported to inhibit the transport activity of MRP5”.

In the case of `C[C@]12CC[C@H]3[C@@H](CCC4=CC(=O)CC[C@@]43C)[C@@H]1CC[C@@H]2O` [testosterone], the “binding affinity to hMRP5, in words” value in assay [4] was “relatively low binding affinity”.

With `CCCOc1ccccc1-c1nc2nn[nH]c2c(=O)[nH]1` [zaprinast], the “inhibition” value in assay [5] is given as “reported to inhibit the transport activity of MRP5”.

These data come from article PMC11156954, “Inhibition and transport mechanisms of the ABC transporter hMRP5” (Nature Communications, 2024).
